According to patent publication US20240108598A1, “Danegaptide for Use in the Treatment or Prevention of a Kidney Disease” (CIANA THERAPEUTICS APS, priority 2021, published 2024):

Experiments:
primary hPTECs = assay: Inflammation antibody array, cell lysates (Table 1); format: cell-based, human; conditions: hPTEC lysate, 48 h
Description: An inflammation antibody array was used to assess regulation of 31 candidate inflammatory proteins in cell lysates from hPTEC cells treated with TGFβ1±danegaptide. Results are representative of 3 separate experiments and presented as mean±SEM, n=3 with key significances indicated (*P<0.05, **P<0.01, ***P<0.001; one-way ANOVA and Tukey's post-test).
A proteome profiler array (Human Cytokine Array Kit from R&D Systems, Oxfordshire, UK) was used, to determine if danegaptide negates TGFβ1-induced changes in expression and secretion of key pro-inflammatory mediators. Primary hPTECs were cultured as described above and treated with TGFβ1 (10 ng/mL)±danegaptide (100 nM) for 48 h.

Cx43 hemichannels = biological target: T1, Cx43 hemichannels (Homo sapiens, UniProt P17302); assay: Carboxyfluorescein dye uptake assay in HK2 cells; format: cell-based; conditions: for carboxyfluorescein dye uptake, of control: 48 h
T1 construct: host or cells: HK2 human kidney proximal tubule epithelial cell line
Protocol: In panel A, HK2 cells were cultured in low glucose (5 mM) with/without TGFβ1 (10 ng/ml)±danegaptide (50, 100 and 1000 nM) for 48 h and cell viability assessed. Results are presented as mean±SEM, n=3. […] Addition of danegaptide (50 or 100 nM) reduced dye uptake, returning fluorescence intensity to control levels. Intensity is expressed as percentage compared to low glucose control and is representative of 3 separate experiments. Data is presented as mean±SEM, n=3 with key significances indicated (**P<0.01, ***P<0.001); one-way ANOVA and Tukey's post-test).
HK2 and HPTEC cells were seeded onto fluorodishes (22 mm diameter) and cultured in low glucose DMEM/F12 (5 mmol/1) for 48 h. Following an overnight serum-starvation, cells were incubated with TGFβ1 (10 ng/ml)±danegaptide (100 nM) for 48 h. For subsequent steps, a balanced salt solution (BSS, pH7.0) was used, comprising of NaCl (137 mM), KCl (5.4 mM), MgSO4 (0.8 mM), Na2HPO4 (0.3 mM), KH2PO4 (0.4 mM), NaHCO3 (4.2 mM), HEPES (10 mM) and glucose (5 mM). To induce dye uptake, cells were exposed to Ca^2+-free BSS (zero CaCl2+EGTA (1 mM)) plus carboxyfluorescein (200 μM) for 10 min, followed by a 10 min period in Ca^2+-containing BSS (1.3 mM) plus carboxyfluorescein (200 μM). Dishes were subsequently washed with Ca^2+-containing BSS (12 mls). Images were acquired with a Cool Snap HQ CCD camera (Roper Scientific) and Metamorph software (Universal Imaging Corp., Marlow, Bucks, UK). ImageJ was used to quantify dye uptake, where a region of interest (ROI) was drawn around each cell (approx. 10-15 cells/dish) and mean pixel intensity measured. A background fluorescence value was subtracted from each ROI.

HK2 cells = assay: Lactate dehydrogenase (LDH) release assay; format: cell-based; conditions: 48 h
Protocol: HK2 cells were cultured in low glucose (5 mM) for 48 h, prior to being serum-starved overnight and subsequently treated with TGFβ1 (10 ng/mL)±danegaptide (50 nM-1 μM) for 48 h (FIG. 1A, n=3).
The release of lactate dehydrogenase (LDH) into media as a result of plasma membrane damage is commonly used to evaluate cell death or cytotoxicity. HK2 cells were seeded in 96-well plates and cultured in low glucose DMEM/F12 (5 mM) for 48 h, prior to overnight serum-starvation. Cells were then stimulated for 48 h with TGFβ1 (10 ng/ml)±danegaptide (50-1000 nM). The LDH-cytotoxicity assay kit II (Abcam) was used to quantify LDH according to the manufacturer's instructions.

[1] = TGFβ1 10 ng/mL + danegaptide 50 nM
[2] = TGFβ1 10 ng/mL + danegaptide 100 nM

T1 sequence (P17302 whole entry): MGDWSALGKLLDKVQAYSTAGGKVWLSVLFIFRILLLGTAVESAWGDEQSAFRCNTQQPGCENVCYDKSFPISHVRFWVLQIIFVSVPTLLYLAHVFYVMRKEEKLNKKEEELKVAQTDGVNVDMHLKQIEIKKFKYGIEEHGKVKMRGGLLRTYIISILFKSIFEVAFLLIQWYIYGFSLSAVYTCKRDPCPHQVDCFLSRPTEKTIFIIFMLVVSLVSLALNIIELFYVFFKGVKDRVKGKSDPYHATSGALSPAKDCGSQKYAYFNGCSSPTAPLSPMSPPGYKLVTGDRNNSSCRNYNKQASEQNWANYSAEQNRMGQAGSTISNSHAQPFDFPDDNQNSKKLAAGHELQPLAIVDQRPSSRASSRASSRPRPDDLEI

Molecule: TGFβ1: Recombinant hTGFβ1 (Sigma); pro-fibrotic cytokine used to stimulate the cells [reference compound]
- Angiogenin in lysate (% compared to control) (primary hPTECs; TGF-β1 10 ng/mL alone): 237 ± 36^ %
- Cystatin C in lysate (% compared to control) (primary hPTECs; TGF-β1 10 ng/mL alone): 182 ± 17.5%
- DPPIV in lysate (% compared to control) (primary hPTECs; TGF-β1 10 ng/mL alone): 315 ± 6.8%
- ENA 78 in lysate (% compared to control) (primary hPTECs; TGF-β1 10 ng/mL alone): 207 ± 21.6%
- Endoglin in lysate (% compared to control) (primary hPTECs; TGF-β1 10 ng/mL alone): 145 ± 24.9%
- FGF7 in lysate (% compared to control) (primary hPTECs; TGF-β1 10 ng/mL alone): 139 ± 5.6%
- Flt 3 Ligand in lysate (% compared to control) (primary hPTECs; TGF-β1 10 ng/mL alone): 212 ± 13.3%
- G-CSF in lysate (% compared to control) (primary hPTECs; TGF-β1 10 ng/mL alone): 201 ± 24.6%
- GM-CSF in lysate (% compared to control) (primary hPTECs; TGF-β1 10 ng/mL alone): 221 ± 11.1%
- HGF in lysate (% compared to control) (primary hPTECs; TGF-β1 10 ng/mL alone): 153 ± 17.0%
- ICAM 1 in lysate (% compared to control) (primary hPTECs; TGF-β1 10 ng/mL alone): 190 ± 13.6%
- IFNg in lysate (% compared to control) (primary hPTECs; TGF-β1 10 ng/mL alone): 206 ± 15.4%
- IGFBP2 in lysate (% compared to control) (primary hPTECs; TGF-β1 10 ng/mL alone): 519 ± 99.4%
- IGFBP3 in lysate (% compared to control) (primary hPTECs; TGF-β1 10 ng/mL alone): 394 ± 94.5%
- IL1A in lysate (% compared to control) (primary hPTECs; TGF-β1 10 ng/mL alone): 127 ± 26.4%
- IL3 in lysate (% compared to control) (primary hPTECs; TGF-β1 10 ng/mL alone): 176 ± 3.4%
- IL8 in lysate (% compared to control) (primary hPTECs; TGF-β1 10 ng/mL alone): 236 ± 9.4%
- IL12 p70 in lysate (% compared to control) (primary hPTECs; TGF-β1 10 ng/mL alone): 177 ± 31.0%
- IL13 in lysate (% compared to control) (primary hPTECs; TGF-β1 10 ng/mL alone): 269 ± 3.9%
- Kallikrein 3 in lysate (% compared to control) (primary hPTECs; TGF-β1 10 ng/mL alone): 76 ± 12.0%
- LIF in lysate (% compared to control) (primary hPTECs; TGF-β1 10 ng/mL alone): 328 ± 70.4%
- MCP-1 in lysate (% compared to control) (primary hPTECs; TGF-β1 10 ng/mL alone): 134 ± 30.2%
- MMP9 in lysate (% compared to control) (primary hPTECs; TGF-β1 10 ng/mL alone): 24 ± 3.1%
- PDGF-AA/BB in lysate (% compared to control) (primary hPTECs; TGF-β1 10 ng/mL alone): 247 ± 53.4%
- RAGE in lysate (% compared to control) (primary hPTECs; TGF-β1 10 ng/mL alone): 109 ± 23.8%
- RANTES in lysate (% compared to control) (primary hPTECs; TGF-β1 10 ng/mL alone): 235 ± 13.5%
- Serpin E1 in lysate (% compared to control) (primary hPTECs; TGF-β1 10 ng/mL alone): 186 ± 40.2%
- TFF3 in lysate (% compared to control) (primary hPTECs; TGF-β1 10 ng/mL alone): 204 ± 25.8%
- TNF-α in lysate (% compared to control) (primary hPTECs; TGF-β1 10 ng/mL alone): 192 ± 14.7%
- Thrombospondin-1 in lysate (% compared to control) (primary hPTECs; TGF-β1 10 ng/mL alone): 128 ± 37.5%
- VEGF in lysate (% compared to control) (primary hPTECs; TGF-β1 10 ng/mL alone): 203 ± 25.9%
- carboxyfluorescein dye uptake, of control (Cx43 hemichannels; TGFβ1 10 ng/mL alone): 354.9±32.6%
- LDH release compared to control (HK2 cells; TGFβ1 10 ng/mL alone): 109.3±11.3%

Molecule: NCC(=O)N1C[C@H](NC(=O)c2ccccc2)C[C@H]1C(=O)O [danegaptide, (2S,4R)-1-(2-aminoacetyl)-4-benzamidopyrrolidine2-carboxylic acid]
- Angiogenin in lysate (% compared to control) (primary hPTECs; TGF-β1 10 ng/mL + DG 100 nM): 100 ± 20.3%
- Cystatin C in lysate (% compared to control) (primary hPTECs; TGF-β1 10 ng/mL + DG 100 nM): 123 ± 14.3%
- DPPIV in lysate (% compared to control) (primary hPTECs; TGF-β1 10 ng/mL + DG 100 nM): 187 ± 25.2%
- ENA 78 in lysate (% compared to control) (primary hPTECs; TGF-β1 10 ng/mL + DG 100 nM): 97 ± 18.2%
- Endoglin in lysate (% compared to control) (primary hPTECs; TGF-β1 10 ng/mL + DG 100 nM): 72.3 ± 8.9^ %
- FGF7 in lysate (% compared to control) (primary hPTECs; TGF-β1 10 ng/mL + DG 100 nM): 106 ± 15.2%
- Flt 3 Ligand in lysate (% compared to control) (primary hPTECs; TGF-β1 10 ng/mL + DG 100 nM): 208 ± 31.4%
- G-CSF in lysate (% compared to control) (primary hPTECs; TGF-β1 10 ng/mL + DG 100 nM): 126 ± 4.7%
- GM-CSF in lysate (% compared to control) (primary hPTECs; TGF-β1 10 ng/mL + DG 100 nM): 136 ± 11.6%
- HGF in lysate (% compared to control) (primary hPTECs; TGF-β1 10 ng/mL + DG 100 nM): 104.0 ± 9.0%
- ICAM 1 in lysate (% compared to control) (primary hPTECs; TGF-β1 10 ng/mL + DG 100 nM): 80 ± 28.7%
- IFNg in lysate (% compared to control) (primary hPTECs; TGF-β1 10 ng/mL + DG 100 nM): 112 ± 12.7%
- IGFBP2 in lysate (% compared to control) (primary hPTECs; TGF-β1 10 ng/mL + DG 100 nM): 334 ± 66.1%
- IGFBP3 in lysate (% compared to control) (primary hPTECs; TGF-β1 10 ng/mL + DG 100 nM): 97 ± 28.5%
- IL1A in lysate (% compared to control) (primary hPTECs; TGF-β1 10 ng/mL + DG 100 nM): 80 ± 18.8%
- IL3 in lysate (% compared to control) (primary hPTECs; TGF-β1 10 ng/mL + DG 100 nM): 129 ± 15.7%
- IL8 in lysate (% compared to control) (primary hPTECs; TGF-β1 10 ng/mL + DG 100 nM): 122 ± 5.2%
- IL12 p70 in lysate (% compared to control) (primary hPTECs; TGF-β1 10 ng/mL + DG 100 nM): 97 ± 4.6%
- IL13 in lysate (% compared to control) (primary hPTECs; TGF-β1 10 ng/mL + DG 100 nM): 150 ± 46.0%
- Kallikrein 3 in lysate (% compared to control) (primary hPTECs; TGF-β1 10 ng/mL + DG 100 nM): 67 ± 14.3%
- LIF in lysate (% compared to control) (primary hPTECs; TGF-β1 10 ng/mL + DG 100 nM): 225 ± 82^ %
- MCP-1 in lysate (% compared to control) (primary hPTECs; TGF-β1 10 ng/mL + DG 100 nM): 97.6 ± 13.9%
- MMP9 in lysate (% compared to control) (primary hPTECs; TGF-β1 10 ng/mL + DG 100 nM): 95 ± 10.6%
- PDGF-AA/BB in lysate (% compared to control) (primary hPTECs; TGF-β1 10 ng/mL + DG 100 nM): 95.2 ± 14.6%
- RAGE in lysate (% compared to control) (primary hPTECs; TGF-β1 10 ng/mL + DG 100 nM): 105 ± 9.2%
- RANTES in lysate (% compared to control) (primary hPTECs; TGF-β1 10 ng/mL + DG 100 nM): 104 ± 15.2%
- Serpin E1 in lysate (% compared to control) (primary hPTECs; TGF-β1 10 ng/mL + DG 100 nM): 148 ± 28.5%
- TFF3 in lysate (% compared to control) (primary hPTECs; TGF-β1 10 ng/mL + DG 100 nM): 132 ± 3.9%
- TNF-α in lysate (% compared to control) (primary hPTECs; TGF-β1 10 ng/mL + DG 100 nM): 144 ± 18.5%
- Thrombospondin-1 in lysate (% compared to control) (primary hPTECs; TGF-β1 10 ng/mL + DG 100 nM): 100 ± 19.8%
- VEGF in lysate (% compared to control) (primary hPTECs; TGF-β1 10 ng/mL + DG 100 nM): 101 ± 16.4%
- carboxyfluorescein dye uptake, of control (Cx43 hemichannels; [1]): 165.5±17.9%
- carboxyfluorescein dye uptake, of control (Cx43 hemichannels; [2]): 147.6±18.1%
- carboxyfluorescein dye uptake (Cx43 hemichannels; danegaptide alone): did not alter dye uptake
- concentration of optimal inhibition of carboxyfluorescein dye uptake (Cx43 hemichannels; dose range 10 to 1000 nM tested): 50 to 100 nM
- LDH release compared to control (HK2 cells; [1]): 106.4±11.6%
- LDH release compared to control (HK2 cells; [2]): 113.9±15.6%
- LDH release compared to control (HK2 cells; TGFβ1 10 ng/mL + danegaptide 1 μM): 113.2±4.3%
- LDH release compared to control (HK2 cells; danegaptide alone 50 nM): 104.4±4.3%
- LDH release compared to control (HK2 cells; danegaptide alone 100 nM): 95.3±4.7%
- LDH release compared to control (HK2 cells; danegaptide alone 1 μM): 92.6±3.3%
